Source: the NIST ThermoML archive (doi:10.1016/j.fluid.2010.03.001)

Assay: xn = mol fraction of the nth substance listed
Details: 101 kPa, Liquid; for mass density: Vibrating tube method; for viscosity: Concentric cylinders viscometry

C=C(C)[C@H]1CC=C(C)CC1 [(R)-1-methyl-4-(1-methylethenyl)cyclohexene] + CCCCCO
Details | mass density, 333.15 K [kg/m3] | mass density, 343.15 K [kg/m3] | mass density, 353.15 K [kg/m3] | mass density, 363.15 K [kg/m3] | mass density, 373.15 K [kg/m3] | viscosity, 343.15 K [mPa·s] | viscosity, 353.15 K [mPa·s] | viscosity, 363.15 K [mPa·s] | viscosity, 373.15 K [mPa·s]
x2 = 0 | 809.9 | 801.9 | 793.6 | 785.4 | 777.1 | 0.5 | 0.452 | 0.413 | 0.382
x2 = 0.092 | 807.3 | 799.2 | 790.8 | 782.5 | 774.3 | 0.511 | 0.462 | 0.421 | 0.385
x2 = 0.1644 | 805.5 | 797.2 | 788.9 | 780.4 | 771.9 | 0.52 | 0.468 | 0.424 | 0.386
x2 = 0.2748 | 803 | 794.6 | 786.2 | 777.7 | 769 | 0.546 | 0.487 | 0.438 | 0.395
x2 = 0.3592 | 801 | 792.6 | 784.2 | 775.6 | 766.9 | 0.567 | 0.502 | 0.448 | 0.402
x2 = 0.4565 | 798.8 | 790.4 | 781.9 | 773.2 | 764.4 | 0.608 | 0.534 | 0.473 | 0.421
x2 = 0.5542 | 796.5 | 788.2 | 779.5 | 770.9 | 762 | 0.657 | 0.571 | 0.502 | 0.443
x2 = 0.6068 | 795.2 | 787 | 778.4 | 769.6 | 760.7 | 0.688 | 0.594 | 0.519 | 0.456
x2 = 0.647 | 794.2 | 786 | 777.4 | 768.6 | 759.7 | 0.713 | 0.615 | 0.535 | 0.469
x2 = 0.7365 | 792.2 | 783.7 | 775.2 | 766.5 | 757.7 | 0.786 | 0.669 | 0.576 | 0.499
x2 = 0.8234 | 789.8 | 781.5 | 773.1 | 764.4 | 755.7 | 0.878 | 0.737 | 0.627 | 0.538
x2 = 0.9105 | 787.3 | 779.1 | 770.6 | 762 | 753.1 | 0.996 | 0.827 | 0.691 | 0.584
